# Patent publication US20250361234A1 (NICO THERAPEUTICS, INC., priority 2022, published 2025)
# Molecular target: T1, full-length SARM1 (FL-SARM1) (Homo sapiens, UniProt Q6SZW1)
# T1 sequence (Q6SZW1 28-724): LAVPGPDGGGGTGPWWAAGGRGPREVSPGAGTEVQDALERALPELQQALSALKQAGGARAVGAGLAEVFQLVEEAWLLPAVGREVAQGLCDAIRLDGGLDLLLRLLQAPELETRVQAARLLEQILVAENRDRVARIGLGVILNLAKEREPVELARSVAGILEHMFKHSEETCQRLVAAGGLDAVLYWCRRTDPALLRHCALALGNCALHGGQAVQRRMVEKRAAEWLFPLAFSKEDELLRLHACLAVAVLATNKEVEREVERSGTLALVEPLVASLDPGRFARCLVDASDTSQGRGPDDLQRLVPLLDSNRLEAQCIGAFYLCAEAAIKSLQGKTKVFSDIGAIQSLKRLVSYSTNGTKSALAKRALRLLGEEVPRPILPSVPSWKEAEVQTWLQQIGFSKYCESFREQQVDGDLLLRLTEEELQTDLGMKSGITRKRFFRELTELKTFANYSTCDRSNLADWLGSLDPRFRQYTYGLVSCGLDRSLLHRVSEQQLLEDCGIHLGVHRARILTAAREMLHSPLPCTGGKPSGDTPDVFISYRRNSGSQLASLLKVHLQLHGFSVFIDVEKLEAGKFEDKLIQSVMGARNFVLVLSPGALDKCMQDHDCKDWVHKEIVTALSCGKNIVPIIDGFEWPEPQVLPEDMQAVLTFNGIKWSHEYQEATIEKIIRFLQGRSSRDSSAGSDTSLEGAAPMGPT
# Assay: FL-SARM1 cellular lysate assay (NAD/NADH-Glo readout of remaining NAD+)
# Conditions: SARM1 cellular lysate from transfected HEK293T cells, NAD+ and NMN, 11 point curve
# Method: Preparation of full-length SARM1 (FL-SARM1) lysate: HEK293T cells (ATCC: CRL-3216) were grown on 150 mm TC-treated dishes to 80-90% confluency in complete DMEM (Thermo Fisher: 11965175) supplemented with 10% HI-FBS (VWR: 10802-772), 1× Pen/Strep (Thermo Fisher: 15140122), 1× NEAA (Thermo Fisher: 1140050), 1× glutamax (Thermo Fisher: 35050061), and 1 mM sodium pyruvate (Thermo Fisher: 11360070)) at 37° C. and 5% CO2. One hour prior to transfection, the media was replaced with fresh, 37° C. complete DMEM (20 mL per one 150 mm dish) supplemented with additional 10 mM glucose (Alfa Aesar AAJ60067EQE). Per one 150 mm dish, 30 μg FL-SARM1 (SEQ. ID. 1; cloned in-house) plasmid was dissolved in 1 mL DMEM at ambient temperature and were mixed by inverting the tube 8-10 times. 90 μL of GenJet™ in vitro DNA transfection reagent (Ver2) was dissolved in 1 mL DMEM at ambient temperature and were mixed by inverting the tube 8-10 times. The plasmid and transfection agent solutions were combined, mixed by 8-10 inversions and incubated for 10 minutes at ambient temperature. 2 mL of this transfection mixture was added to each dish containing HEK293T cells as prepared above followed by a gentle mixing of 4-5 horizontal rotations. The dishes were incubated at 37° C. and 5% CO2 for 24 h. The dishes were removed from the incubator, the medium was aspirated and the cells were scraped off using cell scrapers in ice-cold 1× PBS (5 mL/dish, Thermo Fisher Scientific 10010023). The collected cells were centrifuged at 300 g for 5 minutes at 4° C. The supernatant was aspirated and the pellet was frozen at −80° C. until needed. The cell pellet from 30 dishes was dissolved in 30 mL 1× PBS supplemented with 4 tablets of Complete, Mini EDTA-free protease inhibitor cocktail at 4° C. This mixture was sonicated on ice for 10 minutes at 50% amplitude with a 1 second on/1 second off interval using a Model 120 sonicator (Thermo Fisher Scientific, FB120110). The lysate was centrifuged at 16000 g for 10 minutes at 4° C.
# To a white 384-well Proxiplate (PerkinElmer, PE-6008280) was added 50 nL/well of a DMSO solution containing test compounds followed by 7.5 mL/well of a 0.067 mg/mL solution of SARM1 cellular lysate in reaction buffer (DPBS containing CHAPSO (0.1%) and fatty acid free BSA (0.032%)). The plate was centrifuged for 1 minute at 1000 RPM and then placed in an incubator at 23° C. for 15 minutes. To the wells were added 2.5 mL/well of a solution containing 40 mM NAD^+ and 4 mM NMN in reaction buffer. The plate was centrifuged for 1 min at 1000 RPM, the plate was sealed and placed in an incubator at 23° C. for 3.5 hours before adding 3.5 mL/well of NAD/NADH-Glo™ solution (preparation as described by Promega using the extended detection protocol). The plate was centrifuged for 1 minute at 1000 RPM and then incubated at 23° C. for 20 minutes. 1 mL/well of a 3.625 mM solution of menadione in DMSO was added and the plate was centrifuged for 1 minute at 1000 RPM. […] Percent inhibition was calculated as follows:
# IC50 values were calculated from an 11 point curve using ½ log dilutions using a four-parameter logistic regression curve fit.
Compound,IC50 (Activity (μM)) [µM],IC50 (Activity) [µM]
"Cc1ccc(NC(=O)C2CCCN2C2CCC2)cc1-c1cncc(F)c1 (racemic) [Example 103, 1-cyclobutyl-N-[3-(5-fluoropyridin-3-yl)-4-methylphenyl]pyrrolidine-2-carboxamide]",17.7,> 10
"Cc1ccc(NC(=O)[C@@H]2CC2(F)F)cc1-c1cnc(C(F)(F)F)nc1 [Example 113, (1S)-2,2-difluoro-N-[4-methyl-3-[2-(trifluoromethyl)pyrimidin-5-yl]phenyl]cyclopropane-1-carboxamide]",34.4,> 10
"Cc1ccc(-c2cc(NC(=O)N3C4CCCC3C4)ccc2C)cn1 [Example 70, N-[4-methyl-3-(6-methylpyridin-3-yl)phenyl]-6-azabicyclo[3.1.1]heptane-6-carboxamide]",0.3,0.0001 to 1
"Cc1ccc(NC(=O)N2C3CC2CC(F)(F)C3)cc1-c1cncc(F)c1 [Example 37, 3,3-difluoro-N-(3-(5-fluoropyridin-3-yl)-4-methylphenyl)-6-azabicyclo[3.1.1]heptane-6-carboxamide]",0.5,0.0001 to 1
"C[C@@H]1CC2C[C@H](C1)N2C(=O)Nc1ccc(C2CC2)c(-c2cncc(F)c2)c1 (single isomer, unassigned) [Example 51, cis-N-(4-cyclopropyl-3-(5-fluoropyridin-3-yl)phenyl)-3-methyl-6-azabicyclo[3.1.1]heptane-6-carboxamide]",0.2,0.0001 to 1
"Cc1ccc(NC(=O)C2CCCN2c2ncccn2)cc1-c1cncc(F)c1 (racemic) [Example 104, N-[3-(5-fluoropyridin-3-yl)-4-methylphenyl]-1-pyrimidin-2-ylpyrrolidine-2-carboxamide]",26.4,> 10
"CCc1ccc(NC(=O)N2[C@@H]3C[C@H](C)C[C@H]2C3)cc1-c1cncc(F)c1 [Example 76, trans-N-(4-ethyl-3-(5-fluoropyridin-3-yl)phenyl)-3-methyl-6-azabicyclo[3.1.1]heptane-6-carboxamide]",0.03,0.0001 to 1
"Cc1ccc(NC(=O)N2C3CCCC2C3)cc1-c1cncc(OC(F)(F)F)c1 [Example 35, N-(4-methyl-3-(5-(trifluoromethoxy)pyridin-3-yl)phenyl)-6-azabicyclo[3.1.1]heptane-6-carboxamide]",0.1,0.0001 to 1
"COc1ccc(-c2cc(NC(=O)N3[C@@H]4C[C@@H](C)C[C@H]3C4)c(F)cc2Cl)cn1 [Example 131, cis-N-[4-chloro-2-fluoro-5-(6-methoxy-3-pyridinyl)phenyl]-3-methyl-6-azabicyclo[3.1.1]heptane-6-carboxamide]",0.7,0.0001 to 1
"Cc1ccc(NC(=O)N2C3CCCC2(C#N)C3)cc1-c1cncc(F)c1 (stereo not drawn) [Example 96, 1-cyano-N-[3-(5-fluoropyridin-3-yl)-4-methylphenyl]-6-azabicyclo[3.1.1]heptane-6-carboxamide]",0.07,0.0001 to 1
"Cc1ccc(NC(=O)N2[C@H](C)CCC[C@H]2C)cc1-c1cncc(F)c1 [Example 22, (2R,6R)-N-(3-(5-fluoropyridin-3-yl)-4-methylphenyl)-2,6-dimethylpiperidine-1-carboxamide]",1.2,1 to 10
"Cc1nnc([C@@]23C[C@@H](C)C[C@@H](C2)N3C(=O)Nc2ccc(Cl)c(-c3cncc(F)c3)c2)o1 (single isomer, unassigned) [Example 134, cis-N-[4-chloro-3-(5-fluoro-3-pyridinyl)phenyl]-3-methyl-1-(5-methyl-1,3,4-oxadiazol-2-yl)-6-azabicyclo[3.1.1]heptane-6-carboxamide]",0.02,0.0001 to 1
